Measurements taken from US11992535B2, “Compounds and probes for imaging huntingtin protein” (CHDI Foundation, Inc., priority 2019, dated 2024).
Like-named read-outs stand apart in the source and are kept apart here.

Target: aggregated MBP-HTT(1-89)Q46-His(6×) (Exonl-Q46) protein (Q46 protein aggregates) (Homo sapiens (Human), UniProt P42858, INS38QQQQQQQQQQQQQQQQQQQQQQQQQ)
Experiment: Q46 Radioligand Binding Assay
Details: read-out: Q46_RBA EC50_
Experimental: Q46 Radioligand Binding Assay
For radioligand binding assays (RBA) MBP-HTT(1-89)Q46-His(6×) (“Exonl-Q46”) protein was generated based on a previous publication (Scherzinger et al. Cell, Vol. 90, 549-558, Aug. 8, 1997). For experiments 30 μM MBP-Exonl-Q46 was incubated with 150 μg/mL thrombin in assay buffer (150 mM NaCl, 50 mM Tris pH 8.0) and 2 mM CaCl2 for 16 hours at 37° C. Aggregated Exonl-Q46 was pelleted by centrifugation for 5 minutes at 13,000 rpm in a bench top centrifuge and re-dissolved in the same volume of assay buffer. Test compounds were prepared by titration in DMSO at 11 concentrations from 63 μM to 2 nM. For the RBA, Q46 protein aggregates and test compounds were pre-incubated in assay buffer for 20 minutes at room temperature, in 100 μL/well in a 96-well plate (pp, round bottom). Then, ligand was added in 50 μL/well and incubated for 60 minutes at 37° C. Final assay concentrations were 1 μM to 30 μM test compound, 1 μM Exonl-Q46 protein (equivalent monomer concentration) and 0.3 nM ligand [^3H3-methyl]-5-((5-methoxypyridin-2-yl)methoxy)-2-(pyrazin-2-yl)benzo[d]oxazole. Samples were transferred onto GF/B filter plates and washed 2× with 200 μL PBS using a Filtermate Harvester. After drying filter plates for 1 hour at 55° C., the back of the plates were sealed with foil and 30 μL/well scintillation fluid (Packard MicroScint 40) added, incubated for 15 minutes in the dark and counted in a MicroBeta reader. For analysis, replicate data from independent assay plates were normalized towards 0% and 100% inhibition using control wells of vehicle (0% inhibition) and 1 μM unlabelled [^3H3-methyl]-5-((5-methoxypyridin-2-yl)methoxy)-2-(pyrazin-2-yl)benzo[d]oxazole (100% inhibition). IC50 values were determined with a sigmoidal inhibition model with four variables (top, bottom, slope, IC50) in a global fit using the normalized replicate data.

[1] = displacement of 0.3 nM [3H3-methyl]-5-((5-methoxypyridin-2-yl)methoxy)-2-(pyrazin-2-yl)benzo[d]oxazole from 1 μM Exonl-Q46 aggregates, method calls the values IC50
[2] = same radioligand displacement on Exonl-Q46 aggregates

Chain of aggregated MBP-HTT(1-89)Q46-His(6×) (Exonl-Q46) protein (Q46 protein aggregates) (P42858 other isoform, or with tags, fused parts or gaps, stated change not applied): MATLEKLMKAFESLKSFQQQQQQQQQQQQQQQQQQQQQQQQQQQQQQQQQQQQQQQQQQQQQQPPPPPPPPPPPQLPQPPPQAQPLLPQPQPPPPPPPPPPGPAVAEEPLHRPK

| EC50 [1] [nM] | EC50 [2] [nM] | Structure (SMILES) |
| --- | --- | --- |
| 7.86 | < 100 | COc1ccc(COc2cnc3c(c2)CN(c2cncc(OC)c2)CC3)nc1 [Example 6.3] |
| 52.4 | < 100 | COc1ccc(C(=O)N2CCc3ccc(OCc4cnn(C)c4)cc3C2)cn1 [Example 1.27] |
| 1.78 | < 100 | COc1ccc(C(=O)N2CCc3ccc(OCc4ccc(OC)cn4)cc3C2)cc1 [Example 1.26] |
| 96.5 | < 100 | COc1ccc(COc2ccc3c(c2)CN(C(C)=O)CC3)nc1 [Example 1.7] |
| 390 | 100 to 500 | COc1ccc(COc2ccc3c(c2)CN(S(=O)(=O)c2ccc(OC)nc2)CC3)nc1 [Example 18, 7-[(5-Methoxypyridin-2-yl)methoxy]-2-[(6-methoxypyridin-3-yl)sulfonyl]-1,2,3,4-tetrahydroisoquinoline] |
| 98.5 | < 100 | COc1ccc(COc2ccc3c(c2)C(=O)N(Cc2ccc(OC)nc2)CC3)nc1 [Example 2, 7-[(5-Methoxypyridin-2-yl)methoxy]-2-[(6-methoxypyridin-3-yl)methyl]-1,2,3,4-tetrahydroisoquinolin-1-one] |
| 1000 | > 500 | COc1ccc(NC(=O)N2CCc3ccccc3C2)cn1 [Example 4.1] |
| 5 | < 100 | COc1ccc(COc2ccc3c(c2)CN(C(=O)c2ccc(OC)cn2)CC3)nc1 [Example 1.10] |
| 2.1 | < 100 | COc1ccc(COc2ccc3c(c2)CN(C(=O)c2cnc(OC)nc2)CC3)nc1 [Example 1.22] |
| 1000 | > 500 | COc1ccc(COC(=O)N2CCc3ccccc3C2)cn1 [Example 5, (6-Methoxypyridin-3-yl)methyl 1,2,3,4-tetrahydroisoquinoline-2-carboxylate] |
| 36.5 | < 100 | COc1ccc(COc2ccc3c(c2)CN(C(=O)OCC(C)C)CC3)nc1 [Example 33, 2-Methylpropyl 7-[(5-methoxypyridin-2-yl)methoxy]-1,2,3,4-tetrahydroisoquinoline-2-carboxylate] |
| 29.4 | < 100 | COc1ccc(COc2cnc3c(c2)CN(C(=O)c2cncc(OC)c2)CC3)nc1 [Example 1.28] |
| 14.5 | < 100 | COc1ccc(COc2ccc3c(c2)C(C)N(C(=O)c2ccc(OC)nc2)CC3)nc1 (stereo not shown) [Example 9, 7-[(5-Methoxypyridin-2-yl)methoxy]-2-(6-methoxypyridine-3-carbonyl)-1-methyl-1,2,3,4-tetrahydroisoquinoline] |
| 37.4 | < 100 | COc1ccc(OCCOc2ccc3c(c2)CN(C(=O)c2ccc(OC)nc2)CC3)nc1 [Example 19, 7-{2-[(5-Methoxypyridin-2-yl)oxy]ethoxy}-2-(6-methoxypyridine-3-carbonyl)-1,2,3,4-tetrahydroisoquinoline] |
| 23.5 | < 100 | COc1ccc(COc2ccc3c(c2)CN(C(=O)c2ccc(=O)n(C)c2)CC3)nc1 [Example 41, 5-(7-((5-Methoxypyridin-2-yl)methoxy)-1,2,3,4-tetrahydroisoquin-oline-2-carbonyl)-1-methylpyridin-2(1H)-one] |
| 186 | 100 to 500 | COc1ccc(COc2ccc3c(c2)CN(c2ccc(OC)nc2)C(=O)C3)nc1 [Example 10, 7-[(5-Methoxypyridin-2-yl)methoxy]-2-(6-methoxypyridin-3-yl)-1,2,3,4-tetrahydroisoquinolin-3-one] |
| 4.24 | < 100 | COc1ccc(COc2ccc3c(c2)CN(C(=O)c2ccc(=O)n(CCF)n2)CC3)nc1 [Example 1.20] |
| 1000 | > 500 | COc1ccc(COc2ccc3c(c2)CN(C(=O)N2CC4(COC4)C2)CC3)nc1 [Example 4.4] |
| 65 | < 100 | COc1ccc(COc2cnc3c(c2)CN(C(=O)c2cncc(OCCF)c2)CC3)nc1 [Example 1.18] |
| 7.87 | < 100 | COc1ccc(COc2ccc3c(c2)CN(C(=O)c2cnn(C)c2)CC3)nc1 [Example 1.24] |

| EC50 [1] [nM] | EC50 [2] [nM] | Structure (SMILES) |
| --- | --- | --- |
| 1000 | > 500 | COc1ccc(OCc2cn3c(n2)CN(C(=O)c2ccc(OC)nc2)CC3)nc1 [Example 20, 5-Methoxy-2-{[7-(6-methoxypyridine-3-carbonyl)-5H,6H,7H,8H-imidazo[1,2-a]pyrazin-2-yl]methoxy}pyridine] |
| 16.3 | < 100 | COc1ccc(COc2cnc3c(c2)CN(C(=O)c2ccnc(OC)c2)CC3)nc1 [Example 1.21] |
| 5.45 | < 100 | COc1ccc(COc2ccc3c(c2)CN(C(=O)c2ccc(=O)n(CCCF)c2)CC3)nc1 [Example 1.19] |
| 704 | > 500 | COc1ccc(OCCn2cnc3c2CN(C(=O)c2ccc(OC)nc2)CC3)nc1 [Example 30, 2-Methoxy-5-(3-{2-[(5-methoxypyridin-2-yl)oxy]ethyl}-3H,4H,5H,6H,7H-imidazo[4,5-c]pyridine-5-carbonyl)pyridine] |
| 1.72 | < 100 | COc1ccc(C(=O)Nc2ccc3c(c2)CN(C(=O)c2ccc(OC)nc2)CC3)nc1 [Example 12] |
| 1.79 | < 100 | COc1ccc(COc2ccc3c(c2)CN(c2ccc(OC)cn2)CC3)nc1 [Example 8, 2-(5-Methoxypyridin-2-yl)-7-[(5-methoxypyridin-2-yl)methoxy]-1,2,3,4-tetrahydroisoquinoline] |
| 1.26 | < 100 | COc1ccc(COc2ccc3c(c2)CN(c2ncc(OC)cn2)CC3)nc1 [Example 3, 7-[(5-Methoxypyridin-2-yl)methoxy]-2-(5-methoxypyrimidin-2-yl)-1,2,3,4-tetrahydroisoquinoline] |
| 2.48 | < 100 | COc1ccc(COc2ccc3c(c2)CN(C(=O)c2ccc(OCCF)nc2)CC3)nc1 [Example 34, (6-(2-Fluoroethoxy)pyridin-3-yl)(7-((5-methoxypyridin-2-yl)methoxy)-3,4-dihydroisoquinolin-2(1H)-yl)methanone] |
| 23 | < 100 | COc1ccc(COc2cnc3c(c2)CN(C(=O)c2ccnc(OCCF)c2)CC3)nc1 [Example 1.23] |
| 7.75 | < 100 | COc1ccc(COc2ccc3c(c2)CN(C(=O)c2ccc(=O)n(C)n2)CC3)nc1 [Example 1.1] |
| 39.5 | < 100 | COc1ccc(COc2cc3c(cn2)CCN(C(=O)c2ccc(OC)nc2)C3)nc1 [Example 16, 7-[(5-Methoxypyridin-2-yl)methoxy]-2-(6-methoxypyridine-3-carbonyl)-1,2,3,4-tetrahydro-2,6-naphthyridine] |
| 12 | < 100 | COc1ccc(COc2ccc3c(c2)CN(C(=O)c2ccc(=O)[nH]c2)CC3)nc1 [Example 39, 5-(7-((5-Methoxypyridin-2-yl)methoxy)-1,2,3,4-tetrahydroisoquinoline-2-carbonyl)pyridin-2(1H)-one] |
| 2.6 | < 100 | COc1ccc(C(=O)N2CCc3ccc(OCc4ccc(OCF)cn4)cc3C2)cn1 [Example 37, (7-((5-(Fluoromethoxy)pyridin-2-yl)methoxy)-3,4-dihydroisoquino-lin-2(1H)-yl)(6-methoxypyridin-3-yl)methanone] |
| 34.1 | < 100 | COc1ccc(COc2cccc3c2CCN(C(=O)c2ccc(OC)nc2)C3)nc1 [Example 1.12] |
| 5.73 | < 100 | COc1ccc(COc2cnc3c(c2)CN(C(=O)c2ccc(OC)nc2)CC3)nc1 [Example 1.16] |
| 5.2 | < 100 | COc1ccc(COc2ccc3c(c2)CN(C(=O)c2ccc(OC)nn2)CC3)nc1 [Example 1.11] |
| 271 | 100 to 500 | COc1ccc(COc2cnc3c(c2)CN(C(=O)c2ccn(CCF)c(=O)c2)CC3)nc1 [Example 1.29] |
| 3.67 | < 100 | COc1ccc(COc2ccc3c(c2)CN(C(=O)N2CCc4cc(OC)ncc4C2)CC3)nc1 [Example 4.3] |
| 6.92 | < 100 | COc1ccc(COc2ccc3c(c2)CN(C(=O)Nc2ccc(OC)nc2)CC3)nc1 [Example 4.2] |
| 27.8 | < 100 | COc1ccc(COc2ccc3c(c2)CN(C(=O)c2cccnc2)CC3)nc1 [Example 1.9] |

| Structure (SMILES) | EC50 [1] [nM] | EC50 [2] [nM] |
| --- | --- | --- |
| COc1ccc(COc2ccc3c(c2)CNCC3)nc1 [Example 1.30, 7-[(5-Methoxypyridin-2-yl)methoxy]-1,2,3,4-tetrahydroisoquinolin-2-ium chloride] | 1000 | > 500 |
